Data on 8 compounds can be found in article PMC12126525, “Mechanism of ATP hydrolysis in the Hsp70 BiP nucleotide-binding domain” (Nature Communications, 2025).

By koff is commonly meant the rate constant with which the complex falls apart. Low values mean slow dissociation, high ones fast dissociation. The term kon denotes the rate constant with which the complex forms. The Kd is the free concentration of one partner at which half of the binding sites on the other are occupied at equilibrium, for simple one-to-one binding. Broadly, the kcat is the maximal rate divided by the concentration of active sites.

Test [1] concerns the target T1, BiP NBD (Homo sapiens, UniProt P11021). Nature of the test: NMR experiment with MABA-ATP (no E1, no E2) and kinetic fit of the MABA-ATP/MABA-ADP functional cycle. The format is biochemical. The arrangement: His6 (N, cleaved yes); made in house; host or cells: E. coli BL21-(DE3)-Lemo, pET28a vector. The settings on record: for species: Supplementary Fig 13b. The protocol:
[…] After the equilibration time 2D [^13C,^1H]-HMQC spectra were recorded in interleaved mode with 1D ^1H NMR spectra. […] The same setup was used for the alternative experiments by including or excluding E1 and/or E2. When E1 was not included, the ratio of the ATP/ADP NMR signals was used to monitor their relative concentrations.
(§1) (1 picture or pasted object on this page, not shown here)

For test [2], the target named is BiP. The settings on record: NBD·MABA-ATP ⇌ NBD + MABA-ATP; cited from earlier work.
The subject of test [3] is Hsp70. The arrangement: method as in PMID 8226982. The settings on record: optimal range of concentration between 100 and 150 mM; cited from earlier work.
Test [4] deals with T1, BiP NBD. The protocol: We next wanted to compare our determined kinetic rates of ADP dissociation, koff2 and koff5 , with a standard assay in the Hsp70 field that measures ADP lifetimes by ADP displacement.
The dissociation rate constants (koff) were determined by fitting the data to a one phase exponential function using a python script. […]
The red line corresponds to the mono-exponential fit of the data. […]
from 0.001 to 10 mM, in the absence of Pi (pink circles) and with 0.5 mM Pi (blue circles). Data points represent the mean for three independent experiments and the error bar represents the standard deviation. The half maximal inhibitory concentration (IC50) of Ca was calculated from three

Test [5] deals with T1, BiP NBD. Nature of the test: Equilibrium 2D methyl-TROSY NMR fingerprint spectra with ligands (ATP analogs, calcium). The settings on record: 2D methyl-TROSY compared with in-cyclo states. The arrangement: His6 (N, cleaved yes); made in house; host or cells: E. coli BL21-(DE3)-Lemo, pET28a vector. The format is binding. The protocol: First, we probed calcium binding to ADP-bound NBD by NMR equilibrium experiments. […] (Supplementary Fig. 15d). […] (Supplementary Fig. 16).
AMPPNP (adenylyl imidodiphosphate; Jena-bioscience), AMPPCP (adenylyl methylenediphosphate; Jena-bioscience) and ATP-γ-S (adenosine 5’-(gamma-thiotriphosphate; Jena-bioscience) were dissolved in the HKM reaction buffer (25 mM HEPES, pH 7.5, 150 mM KCl and 10 mM MgCl2) at a concentration of 50 mM directly before to be mixed with the BiP NBD sample. Samples were prepared fresh before each use to minimize the known instability of these analogs that undergo slow hydrolysis in solution.
Supplementary Figure 7. Analysis of the BiP NBD ATP-bound state. a, Combined methyl chemical shift differences between the APD·Pi-bound and the ATP-bound state of BiP NBD in-cyclo. The magnitude of 1 and 1.5 SDs are indicated by an orange and a red line, respectively. b, Overlay of 9 crystal structures of BiP NBD in presence of different nucleotides (colored sticks). c, Backbone root means square deviation (RMSD - Å) between the structures shown in (b) and the NBD apo state (PDB 3LDN). d, 2D [13C,1H]-TROSY spectrum of methyl-labeled BiP NBD in equilibrium with the ATP analogs AMPPNP (green), AMPPCP (orange) or ATP-γ-S (yellow), overlayed with the spectrum in-cyclo (pink).
State- and sequence-specific resonance assignments are indicated for the ADP-bound (light blue), ADP·Pi-bound (dark blue) and the ATP-bound (red) states in-cyclo.
as §1
Supplementary Figure 15. Mapping of calcium binding to BiP NBD. a, Selected details from published structures of BiP. From left to right: yeast BiP(NBD)-Mg2+-ADP (PDB 3QFU), human BiP(NBD)-Mg2+- ADP·Pi (PDB 5EVZ), human BiP(NBD)-Ca2+-ADP (PDB 6ZYH). b, Selected sections of 2D [13C,1H]-methyl-TROSY spectra of residue val50cg1 or Ile52cd1 for the equilibrium experiments of NBD apo (grey), NBD with 5 mM Pi (green), NBD with 1 mM ADP (light blue), NBD with 1 mM ADP·Pi (dark blue), NBD with 1 mM ADP-Ca2+ (dark-pink).and NBD with 3.3 mM calcium ([Mg2+]/[Ca2+]=3) (light-pink). c, Combined methyl chemical shift differences between the BiP NBD APD and the ADP-Ca2+-bound state. The magnitude of 1 and 1.5 SDs are indicated by a light blue and a dark blue line. d, Structure of NBD in […]
the ADP-Ca-bound state (PDB 6ZYH).

Where [6] appears, read: MABA-ATP instead of ATP, reactions 1MABA, 2MABA, 3.

“Also recorded” adds a separate entry of the source. Like-named read-outs stand apart in the source and are kept apart here.

T1 sequence (P11021 19-406): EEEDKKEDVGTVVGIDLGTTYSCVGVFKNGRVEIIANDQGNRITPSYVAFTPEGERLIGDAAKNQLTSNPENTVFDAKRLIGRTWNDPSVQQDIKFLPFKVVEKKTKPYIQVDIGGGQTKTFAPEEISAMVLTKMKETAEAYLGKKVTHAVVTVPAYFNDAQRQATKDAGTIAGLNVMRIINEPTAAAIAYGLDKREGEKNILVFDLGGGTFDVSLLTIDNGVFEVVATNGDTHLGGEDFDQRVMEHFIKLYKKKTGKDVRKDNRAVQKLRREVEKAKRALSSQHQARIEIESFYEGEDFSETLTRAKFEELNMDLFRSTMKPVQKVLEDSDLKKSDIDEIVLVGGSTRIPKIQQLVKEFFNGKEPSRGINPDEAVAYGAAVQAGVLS

On to `CNc1ccccc1C(=O)NCCCCNc1nc2c(N)ncnc2n1[C@@H]1O[C@H](COP(=O)(O)OP(=O)(O)OP(=O)(O)O)[C@@H](O)[C@H]1O` [MABA-ATP, 8-[(4-Amino)butyl]-amino-ATP-MAN], for which, in test [1] (setting [6]), the koff was found to be 0.035 ± 0.008 s⁻¹ and the kon was determined as 37000 ± 6000 M⁻¹ s⁻¹. For the same compound, in test [1] (MABA-ATP instead of ATP, reactions 1MABA, 2MABA, 3: release to apo NBD, T = 37°C), binding was characterised by a dissociation constant (Kd) of 950 ± 100 nM. Moreover, the kcat in test [1] (NBD·MABA-ATP → NBD·MABA-ADP·Pi) is 0.036 s⁻¹. Also, in test [2], the Kd was 1000 nM, the “koff1 (MABA-ATP)” value is 0.031 s⁻¹ and the association rate constant (kon) is 32000 M⁻¹ s⁻¹.

Take `[K+]` [potassium]: the “increase of the Hsp70 ATP hydrolysis activity” value in test [3] is 5 fold.

As to `[Ca+2]` [Ca2+], the “Supplementary Fig 16a time trace signal” value in test [4] ([Ca2+] 0.1 μM, time 148.582 sec) stood at 0.000; in test [4] ([Ca2+] 0.5 μM, time 148.582 sec) it was 0.000; in test [4] ([Ca2+] 1 μM, time 148.582 sec) it was 0.000; in test [4] ([Ca2+] 5 μM, time 148.582 sec), 0.000; in test [4] ([Ca2+] 10 μM, time 148.582 sec), 0.000; in test [4] ([Ca2+] 25 μM, time 148.582 sec) it was 0.000. In addition, the “Supplementary Fig 16a time trace signal” value in test [4] ([Ca2+] 50 μM, time 148.582 sec) was 0.000; in test [4] ([Ca2+] 75 μM, time 148.582 sec), 0.002; in test [4] ([Ca2+] 100 μM, time 148.582 sec), 0.000; in test [4] ([Ca2+] 125 μM, time 148.582 sec), 0.000; in test [4] ([Ca2+] 150 μM, time 148.582 sec), 0.005; in test [4] ([Ca2+] 175 μM, time 148.582 sec) it was 0.003. Besides, the “Supplementary Fig 16a time trace signal” value turned out to be 0.000 in test [4] ([Ca2+] 200 μM, time 148.582 sec); 0.003 in test [4] ([Ca2+] 300 μM, time 148.582 sec); 0.002 in test [4] ([Ca2+] 400 μM, time 148.582 sec); 0.002 in test [4] ([Ca2+] 500 μM, time 148.582 sec); 0.000 in test [4] ([Ca2+] 1000 μM, time 148.582 sec); 0.001 in test [4] ([Ca2+] 5000 μM, time 148.582 sec). Further, the “Supplementary Fig 16a time trace signal” value was 0.000 in test [4] ([Pi] 0.5 mM, [Ca2+] 0.1 μM, time 148.846 sec); 0.004 in test [4] ([Pi] 0.5 mM, [Ca2+] 0.5 μM, time 148.846 sec); 0.005 in test [4] ([Pi] 0.5 mM, [Ca2+] 1 μM, time 148.846 sec); 0.000 in test [4] ([Pi] 0.5 mM, [Ca2+] 5 μM, time 148.846 sec); 0.000 in test [4] ([Pi] 0.5 mM, [Ca2+] 10 μM, time 148.846 sec); 0.004 in test [4] ([Pi] 0.5 mM, [Ca2+] 50 μM, time 148.846 sec). The “Supplementary Fig 16a time trace signal” value in test [4] ([Pi] 0.5 mM, [Ca2+] 100 μM, time 148.846 sec) is recorded as 0.003; in test [4] ([Pi] 0.5 mM, [Ca2+] 500 μM, time 148.846 sec) it was 0.007; in test [4] ([Pi] 0.5 mM, [Ca2+] 1000 μM, time 148.846 sec), 0.010; in test [4] ([Pi] 0.5 mM, [Ca2+] 5000 μM, time 148.846 sec), 0.000.

With `CNc1ccccc1C(=O)NCCCCNc1nc2c(N)ncnc2n1[C@@H]1O[C@H](COP(=O)(O)OP(=O)(O)O)[C@@H](O)[C@H]1O` [MABAADP], the species in test [1] (time 4 min) was determined as 350 µM; in test [1] (time 10 min), 508 µM; in test [1] (time 16 min), 626 µM; in test [1] (time 22 min), 712 µM; in test [1] (time 28 min), 800 µM; in test [1] (time 34 min), 840 µM. Also, the species in test [1] (time 40 min) came to 889 µM; in test [1] (time 46 min), 907 µM; in test [1] (time 52 min), 929 µM; in test [1] (time 58 min), 924 µM; in test [1] (time 64 min), 932 µM.

For the compound `CNc1ccccc1C(=O)NCCCCNc1nc2c(N)ncnc2n1[C@@H]1O[C@H](COP(=O)(O)OP(=O)(O)OP(=O)(O)O)[C@@H](O)[C@H]1O` [MABAATP], the species in test [1] (time 4 min) worked out at 649 µM; in test [1] (time 10 min) it was 492.3 µM; in test [1] (time 16 min), 374.2 µM; in test [1] (time 22 min), 287.7 µM; in test [1] (time 28 min), 199.6 µM; in test [1] (time 34 min) it was 160.1 µM. Also, the species worked out at 111.4 µM in test [1] (time 40 min); 92.6 µM in test [1] (time 46 min); 70.6 µM in test [1] (time 52 min); 65.7 µM in test [1] (time 58 min); 67.7 µM in test [1] (time 64 min).

As for `Nc1ncnc2c1ncn2[C@@H]1O[C@H](COP(=O)(O)OP(=O)(O)CP(=O)(O)O)[C@@H](O)[C@H]1O` [AMPPCP, adenylyl methylenediphosphate], the “NMR fingerprint of BiP NBD with the ligand” value (from here on “NMR fingerprint of BiP NBD”) in test [5] is “resemble the ADP·Pi-bound state rather than the ATP-bound state”.

Take `Nc1ncnc2c1ncn2[C@@H]1O[C@H](CO[P@](=O)(O)O[P@](=O)(O)O[P@@](=O)(O)S)[C@@H](O)[C@H]1O` [ATP-γ-S, adenosine 5’-(gamma-thiotriphosphate)]: the “NMR fingerprint of BiP NBD” value in test [5] is “resemble the ADP·Pi-bound state rather than the ATP-bound state; also recorded: showed a peak splitting, indicating the formation of a heterogenous mix of conformations”.

For `Nc1ncnc2c1ncn2[C@@H]1O[C@H](COP(=O)(O)OP(=O)(O)NP(=O)(O)O)[C@@H](O)[C@H]1O` [AMPPNP, adenylyl imidodiphosphate], the “NMR fingerprint of BiP NBD” value in test [5] is “resemble the ADP·Pi-bound state rather than the ATP-bound state”.
